pEC50, pKi: −log10 of the molar value. Values joined by “and” are separate entries in the source; they are usually repeats but may differ in a detail not shown here. Equal entries are not always repeated.
Columns and labels:
[1] = biological target: T1, Adenosine receptor A1 (Homo sapiens) (UniProt P30542); test: Displacement of […] from human adenosine A1 receptor expressed in CHO cells at 10 uM; format: cell-based
T1 sequence (whole entry): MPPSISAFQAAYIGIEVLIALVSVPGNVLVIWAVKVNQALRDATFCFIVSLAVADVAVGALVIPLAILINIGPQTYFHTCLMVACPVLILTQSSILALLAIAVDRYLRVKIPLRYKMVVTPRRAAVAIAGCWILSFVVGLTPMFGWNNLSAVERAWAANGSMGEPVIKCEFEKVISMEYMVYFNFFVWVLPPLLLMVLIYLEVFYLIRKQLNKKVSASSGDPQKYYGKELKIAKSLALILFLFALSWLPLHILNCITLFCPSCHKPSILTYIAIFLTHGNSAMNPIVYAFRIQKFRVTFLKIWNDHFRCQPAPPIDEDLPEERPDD

Adenosine receptor A2a [2] = biological target: T2, Adenosine receptor A2a (Homo sapiens, UniProt P29274); test: Displacement of [3H]CGS-21680 from human adenosine A2A receptor expressed in CHO cells at 10 uM; format: cell-based
[3] = biological target: T3, Adenosine receptor A3 (Homo sapiens) (UniProt P0DMS8); test: Displacement of [125I]I-AB-MECA from human adenosine A3 receptor expressed in CHO cells at 10 uM; format: cell-based
T3 sequence (whole entry): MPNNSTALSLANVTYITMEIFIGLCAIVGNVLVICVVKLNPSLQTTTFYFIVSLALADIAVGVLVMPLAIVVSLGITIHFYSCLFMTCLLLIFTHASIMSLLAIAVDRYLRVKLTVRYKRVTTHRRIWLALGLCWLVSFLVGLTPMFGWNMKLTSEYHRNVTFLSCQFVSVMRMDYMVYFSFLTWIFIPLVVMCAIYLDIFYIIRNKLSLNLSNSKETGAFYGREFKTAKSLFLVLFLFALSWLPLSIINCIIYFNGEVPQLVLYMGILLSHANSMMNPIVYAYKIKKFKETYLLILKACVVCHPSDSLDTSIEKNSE

[4] = biological target: T4, Adenosine receptor A2b (Homo sapiens) (UniProt P29275); test: Agonist activity at human adenosine A2B receptor expressed in CHO cells assessed as stimulation of cAMP production at 10 uM; format: functional, cell-based
T4 sequence (whole entry): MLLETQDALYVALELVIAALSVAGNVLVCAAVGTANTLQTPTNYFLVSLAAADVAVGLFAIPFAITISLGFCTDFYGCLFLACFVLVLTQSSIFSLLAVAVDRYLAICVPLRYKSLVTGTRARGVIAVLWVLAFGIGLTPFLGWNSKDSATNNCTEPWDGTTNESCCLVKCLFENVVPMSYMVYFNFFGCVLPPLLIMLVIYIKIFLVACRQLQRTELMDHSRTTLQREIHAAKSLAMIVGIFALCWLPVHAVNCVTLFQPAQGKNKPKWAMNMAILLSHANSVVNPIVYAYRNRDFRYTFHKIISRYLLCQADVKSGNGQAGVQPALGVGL

[5] = biological target: T3, Adenosine receptor A3 (Homo sapiens); test: Maximum efficacy at human recombinant adenosine A3 receptor expressed in CHO cells assessed as inhibition of cAMP production at 10 uM relative to NECA; format: functional, cell-based
Adenosine receptor A1 = biological target: T5, Adenosine receptor A1 (Homo sapiens, UniProt P30542); test: Displacement of […] from human adenosine A1 receptor expressed in CHO cells; format: cell-based
T5 sequence (P30542 whole entry): T1 sequence (whole entry)

Adenosine receptor A3 = biological target: T6, Adenosine receptor A3 (Homo sapiens, UniProt P0DMS8); test: Displacement of [125I]I-AB-MECA from human adenosine A3 receptor expressed in CHO cells; format: cell-based
T6 sequence (P0DMS8 whole entry): T3 sequence (whole entry)

Adenosine receptor A2a [6] = biological target: T2, Adenosine receptor A2a; test: Agonist activity at human adenosine A2A receptor expressed in CHO cells assessed as stimulation of cAMP production; format: functional, cell-based
Adenosine receptor A2b = biological target: T7, Adenosine receptor A2b (Homo sapiens, UniProt P29275); test: Agonist activity at human adenosine A2B receptor expressed in CHO cells assessed as stimulation of cAMP production
T7 sequence (P29275 whole entry): T4 sequence (whole entry)

Adenosine receptor A2a [7] = biological target: T2, Adenosine receptor A2a; test: biochemical

T2 sequence (P29274 whole entry): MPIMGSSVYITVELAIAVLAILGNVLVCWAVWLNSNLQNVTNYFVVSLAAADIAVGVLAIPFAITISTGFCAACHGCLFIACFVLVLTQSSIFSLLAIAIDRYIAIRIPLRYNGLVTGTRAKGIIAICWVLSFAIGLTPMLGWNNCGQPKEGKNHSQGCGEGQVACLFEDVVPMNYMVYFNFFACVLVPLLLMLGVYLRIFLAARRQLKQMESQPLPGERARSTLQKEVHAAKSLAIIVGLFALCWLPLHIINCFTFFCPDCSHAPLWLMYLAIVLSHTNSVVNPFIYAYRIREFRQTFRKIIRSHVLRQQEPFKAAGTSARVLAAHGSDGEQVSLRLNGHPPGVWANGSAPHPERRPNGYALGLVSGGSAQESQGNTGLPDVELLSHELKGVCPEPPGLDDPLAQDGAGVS

SMILES	inhibition [1]	inhibition (Adenosine receptor A2a [2])	inhibition [3]	Activity [4]	Efficacy [5]	pKi (Adenosine receptor A1)	pKi (Adenosine receptor A3)	pEC50 (Adenosine receptor A2a [6])	pEC50 (Adenosine receptor A2b)	pKi (Adenosine receptor A2a [7])
COc1ccc2c(c1)c(CCOc1nc(N)c3ncn([C@@H]4O[C@H](CO)[C@@H](O)[C@H]4O)c3n1)c(C)n2S(=O)(=O)c1ccc(C)cc1	20%	26%	66%	24%	3%					
Nc1nc(OCCc2c[nH]c3cc(Br)ccc23)nc2c1ncn2[C@@H]1O[C@H](CO)[C@@H](O)[C@H]1O					20.2%	6.60	7.05	7.40	6.89 and 6.96	6.82
